Results: US20040249122A1, “Cationic, amphipathic beta-sheet peptides and uses thereof” (priority 2003, published 2004)
Values after ≈ are worked out from the molar mass of the structure shown. Read-outs that look alike come from different tables or passages of the source. Where a SMILES comes first, the peptide text is derived from it. Where no end group is shown, it is not given here. The star is where a group is joined. Octanoyl = CCCCCCCC(=O)*

Experiments:
[1] = tested on: Escherichia coli (ATCC 25922); type: cell-based
Experimental: (§1) Antimicrobial and Hemolytic Assays. Antimicrobial susceptibility testing against Staphylococcus aureus (ATCC 29213), Escherichia coli (ATCC 25922), and Pseudomonas aeruginosa (ATCC 27853) was performed using a modification of the National Committee for Clinical Laboratory Standards microdilution broth assay (22). Mueller-Hinton broth (BBL) was used for diluting the peptide stock solution and for diluting the bacterial inoculum. The inoculum was prepared from mid-logarithmic phase cultures. […] The final concentration of peptide solution ranged-from 0.25 to 256 μg/mL in two-fold dilutions. The final concentration of bacteria in the wells was 5×10^5 CFU/mL. Peptides were tested in duplicate. In addition to the test peptide, three standard peptides and a non-treated growth control were included to validate the assay. The microtiter plates were incubated overnight at 37° C. and the absorbance was measured at 600 nm. […] After incubation at 37° C. for 30 min, the suspension was centrifuged at 10,000×g for 10 min and the absorbance at 400 nm was measured.

[2] = tested on: Pseudomonas aeruginosa (ATCC 27853); type: cell-based
Experimental: as §1

[3] = tested on: Staphylococcus aureus (ATCC 29213); type: cell-based
Experimental: as §1

[4] = tested on: E. coli, S. aureus, and P. aeruginosa; type: cell-based
Experimental: Antimicrobial and Hemolytic Assays. Antimicrobial susceptibility testing against Staphylococcus aureus (ATCC 29213), Escherichia coli (ATCC 25922), and Pseudomonas aeruginosa (ATCC 27853) was performed using a modification of the National Committee for Clinical Laboratory Standards microdilution broth assay (22). Mueller-Hinton broth (BBL) was used for diluting the peptide stock solution and for diluting the bacterial inoculum. The inoculum was prepared from mid-logarithmic phase cultures. Microtiter plate wells received aliquots-of 100 μL each of the inoculum and peptide dilution. The final concentration of peptide solution ranged-from 0.25 to 256 μg/mL in two-fold dilutions. The final concentration of bacteria in the wells was 5×10^5 CFU/mL. Peptides were tested in duplicate. In addition to the test peptide, three standard peptides and a non-treated growth control were included to validate the assay. The microtiter plates were incubated overnight at 37° C. and the absorbance was measured at 600 nm. […] Hemolysis at peptide concentrations of 500 μg/mL was determined using a 5% suspension of freshly drawn human erythrocytes, which had been washed twice in phosphate buffered saline. After incubation at 37° C. for 30 min, the suspension was centrifuged at 10,000×g for 10 min and the absorbance at 400 nm was measured. Complete hemolysis was determined by adding 0.2% Triton X-100 in place of the peptide.

[5] = Peptide-induced leakage from calcein-loaded LUV
Experimental: Peptide-Induced Leakage from Calcein-Loaded LUV. The ability of the peptides to release calcein (MW 623) from LUV of varying lipid composition was compared. LUV were prepared as above, except that-the buffer consisted of 50 mM HEPES, 100 mM NaCl, 0.3 mM EDTA, 80 mM calcein, pH 7.4. Calcein-loaded vesicles were separated from free calcein by size-exclusion chromatography using a Sephadex G-50 column and calcein-free buffer. Calcein leakage was monitored using a Perkin-Elmer LS-500 luminescence spectrometer by measuring the time-dependent increase in fluorescence of calcein (excitation=490 nm, emission=520 nm). LUV containing 8 nmoles of lipid were added to 1.5 mL of buffer in a stirred cuvet at 25° C. An aliquot of peptide was added to achieve the desired lipid-to-peptide ratio (256 to 8). Complete leakage was determined by the addition of 20 μL of 10% Triton X-100. Each value represents at least nine different measurements using at least three different LUV preparations.

Compound | MIC E. coli ([1]; ATCC 25922) [µg/mL] | MIC Pseud. aerug ([2]; ATCC 27853) [µg/mL] | MIC Staph. aureus ([3]; ATCC 29213) [µg/mL] | antimicrobial activity (in words) [4] | other results
CC(C)C[C@H](NC(=O)CNC(=O)[C@H](C)NC(=O)[C@H](CC(C)C)NC(=O)[C@H](CCCCN)NC(=O)[C@H](CCCCN)NC(=O)[C@H](C)NC(=O)[C@H](CC(C)C)NC(=O)CNC(=O)[C@H](C)NC(=O)[C@H](Cc1c[nH]c2ccccc12)NC(=O)[C@H](CCCCN)NC(=O)[C@H](CCCCN)NC(=O)[C@H](C)NC(=O)[C@H](CC(C)C)NC(=O)CNC(=O)[C@H](C)NC(=O)[C@H](CC(C)C)NC(=O)[C@H](CCCCN)NC(=O)[C@@H](N)CCCCN)C(=O)N[C@@H](C)C(N)=O [1,2-Hept, KKLAGLAKKWAGLAKKLAGLA-NH2] (H-KKLAGLAKKWAGLAKKLAGLA-NH2; N-terminus assumed) | 8 (≈ 3.75 µM) | 16 (≈ 7.49 µM) | 16 (≈ 7.49 µM) | relatively low MIC values | 
CC[C@H](C)[C@H](NC(=O)[C@H](C)NC(=O)CNC(=O)[C@@H](NC(=O)[C@H](CCCCN)NC(=O)[C@H](CCCCN)NC(=O)[C@@H](NC(=O)[C@H](C)NC(=O)CNC(=O)[C@H](Cc1c[nH]c2ccccc12)NC(=O)[C@H](CCCCN)NC(=O)[C@H](CCCCN)NC(=O)[C@@H](NC(=O)[C@H](C)NC(=O)CNC(=O)[C@@H](NC(=O)[C@H](CCCCN)NC(=O)[C@@H](N)CCCCN)[C@@H](C)CC)[C@@H](C)CC)[C@@H](C)CC)[C@@H](C)CC)C(N)=O [1,2-Hex, K K I G A I K K W G A J K K I G A I-NH2] (H-KKIGAIKKWGAIKKIGAI-NH2; N-terminus assumed) | 128 (≈ 66.6 µM) | 128 (≈ 66.6 µM) | >256 |  | 
CC(C)C[C@H](NC(=O)CNC(=O)[C@H](C)NC(=O)[C@H](CCCCN)NC(=O)[C@H](CC(C)C)NC(=O)[C@H](CCCCN)NC(=O)[C@H](C)NC(=O)[C@H](CC(C)C)NC(=O)CNC(=O)[C@H](C)NC(=O)[C@H](CCCCN)NC(=O)[C@H](Cc1c[nH]c2ccccc12)NC(=O)[C@H](CCCCN)NC(=O)[C@H](C)NC(=O)[C@H](CC(C)C)NC(=O)CNC(=O)[C@H](C)NC(=O)[C@H](CCCCN)NC(=O)[C@H](CC(C)C)NC(=O)[C@@H](N)CCCCN)C(=O)N[C@@H](C)C(N)=O [1,3-Hept, KLKAGLAKWKAGLAKLKAGLA-NH2] (H-KLKAGLAKWKAGLAKLKAGLA-NH2; N-terminus assumed) | 32 (≈ 15 µM) | >256 | 256 (≈ 120 µM) | slightly active | 
CC[C@H](C)[C@H](NC(=O)[C@H](C)NC(=O)CNC(=O)[C@H](CCCCN)NC(=O)[C@@H](NC(=O)[C@H](CCCCN)NC(=O)[C@@H](NC(=O)[C@H](C)NC(=O)CNC(=O)[C@H](CCCCN)NC(=O)[C@H](Cc1c[nH]c2ccccc12)NC(=O)[C@H](CCCCN)NC(=O)[C@@H](NC(=O)[C@H](C)NC(=O)CNC(=O)[C@H](CCCCN)NC(=O)[C@@H](NC(=O)[C@@H](N)CCCCN)[C@@H](C)CC)[C@@H](C)CC)[C@@H](C)CC)[C@@H](C)CC)C(N)=O [1,3-Hex, K I K G A I K W K G A I K I K G A I-NH2] (H-KIKGAIKWKGAIKIKGAI-NH2; N-terminus assumed) | 8 (≈ 4.16 µM) | 16 (≈ 8.32 µM) | 32 (≈ 16.6 µM) | appreciable antimicrobial activity | 
CC[C@H](C)[C@H](NC(=O)[C@H](C)NC(=O)[C@H](CCCCN)NC(=O)CNC(=O)[C@@H](NC(=O)[C@H](CCCCN)NC(=O)[C@@H](NC(=O)[C@H](C)NC(=O)[C@H](CCCCN)NC(=O)CNC(=O)[C@H](Cc1c[nH]c2ccccc12)NC(=O)[C@H](CCCCN)NC(=O)[C@@H](NC(=O)[C@H](C)NC(=O)[C@H](CCCCN)NC(=O)CNC(=O)[C@@H](NC(=O)[C@@H](N)CCCCN)[C@@H](C)CC)[C@@H](C)CC)[C@@H](C)CC)[C@@H](C)CC)C(N)=O [1,4-Hex, K I G K A I K W G K A I K I G K A I-NH2] (H-KIGKAIKWGKAIKIGKAI-NH2; N-terminus assumed) | 32 (≈ 16.6 µM) | 64 (≈ 33.3 µM) | >256 |  | 
CC[C@H](C)[C@H](NC(=O)[C@H](CCCCN)NC(=O)[C@H](C)NC(=O)CNC(=O)[C@@H](NC(=O)[C@H](CCCCN)NC(=O)[C@@H](NC(=O)[C@H](CCCCN)NC(=O)[C@H](C)NC(=O)CNC(=O)[C@H](Cc1c[nH]c2ccccc12)NC(=O)[C@H](CCCCN)NC(=O)[C@@H](NC(=O)[C@H](CCCCN)NC(=O)[C@H](C)NC(=O)CNC(=O)[C@@H](NC(=O)[C@@H](N)CCCCN)[C@@H](C)CC)[C@@H](C)CC)[C@@H](C)CC)[C@@H](C)CC)C(N)=O [1,5-Hex, K I G A K I K W G A K I K I G A K I-NH2] (H-KIGAKIKWGAKIKIGAKI-NH2; N-terminus assumed) |  |  |  | appreciable antimicrobial activity | 
CC[C@H](C)[C@H](NC(=O)[C@H](C)NC(=O)CNC(=O)[C@@H](NC(=O)[C@H](CCCCN)NC(=O)[C@H](CCCCN)NC(=O)[C@@H](NC(=O)[C@H](C)NC(=O)CNC(=O)[C@H](Cc1c[nH]c2ccccc12)NC(=O)[C@H](CCCCN)NC(=O)[C@H](CCCCN)NC(=O)[C@@H](NC(=O)[C@H](C)NC(=O)CNC(=O)[C@@H](NC(=O)[C@@H](N)CCCCN)[C@@H](C)CC)[C@@H](C)CC)[C@@H](C)CC)[C@@H](C)CC)C(=O)N[C@@H](CCCCN)C(N)=O [1,6-Hex, K I G A I K K W G A I K K I G A I K-NH2] (H-KIGAIKKWGAIKKIGAIK-NH2; N-terminus assumed) | >256 | >256 | >256 |  | 
CCCCCCCC(=O)N[C@@H](CCCCN)C(=O)N[C@H](C(=O)NCC(=O)N[C@@H](C)C(=O)N[C@@H](CCCCN)C(=O)N[C@H](C(=O)N[C@@H](CCCCN)C(=O)N[C@@H](Cc1c[nH]c2ccccc12)C(=O)NCC(=O)N[C@@H](C)C(=O)N[C@@H](CCCCN)C(=O)N[C@H](C(=O)N[C@@H](CCCCN)C(=O)N[C@H](C(=O)NCC(=O)N[C@@H](C)C(=O)N[C@@H](CCCCN)C(=O)N[C@H](C(N)=O)[C@@H](C)CC)[C@@H](C)CC)[C@@H](C)CC)[C@@H](C)CC)[C@@H](C)CC [Oct-KIGAKI-18A, Oct- K I G A K I K W G A K I K I G A K I-NH2] (Octanoyl-KIGAKIKWGAKIKIGAKI-NH2) |  |  |  |  | MIC E. coli ([1]; Table 103): 8 µg/mL (≈ 3.9 µM); MIC Pseud. aerug ([2]; Table 103): 8 µg/mL (≈ 3.9 µM); MIC Staph. aureus ([3]; Table 103): 4 µg/mL (≈ 1.95 µM)
CCCCCCCC(=O)N[C@@H](CCCCN)C(=O)N[C@H](C(=O)NCC(=O)N[C@@H](C)C(=O)N[C@@H](CCCCN)C(=O)N[C@H](C(=O)N[C@@H](CCCCN)C(=O)N[C@H](C(=O)NCC(=O)N[C@@H](C)C(=O)N[C@@H](CCCCN)C(=O)N[C@H](C(=O)N[C@@H](CCCCN)C(=O)N[C@@H](Cc1c[nH]c2ccccc12)C(=O)NCC(=O)N[C@@H](C)C(=O)N[C@@H](CCCCN)C(=O)N[C@H](C(N)=O)[C@@H](C)CC)[C@@H](C)CC)[C@@H](C)CC)[C@@H](C)CC)[C@@H](C)CC [Oct-KIGAKI-18B, Oct- K I G A K I K I G A K I K W G A K I-NH2] (Octanoyl-KIGAKIKIGAKIKWGAKI-NH2) |  |  |  |  | MIC E. coli ([1]; Table 103): 8 µg/mL (≈ 3.9 µM); MIC Pseud. aerug ([2]; Table 103): 8 µg/mL (≈ 3.9 µM); MIC Staph. aureus ([3]; Table 103): 8 µg/mL (≈ 3.9 µM)
K I G A K S K H G A K I K I G A K I-NH2 (KIGAKSKHGAKIKIGAKI-NH2) [SH-KIGAKI] |  |  |  |  | calcein leakage from LUV (in words) ([5]; POPC (PC) LUV): low lytic activity; calcein leakage from LUV (in words) ([5]; POPC/POPG LUV, all ratios (1:1 to 4:1)): no ability to induce leakage; calcein leakage from LUV (in words) ([5]; any LUVs containing PE/PG): no ability to induce leakage
